Measured values: PMC10415228 (Saudi Pharmaceutical Journal : SPJ, 2023)
Values after ≈ are worked out from the molar mass of the structure shown.

Test system: trypsin (serine protease)
Test: serine protease
Type: biochemical

IC50: 295.44 µg/mL (≈ 978 µM)
SMILES: O=c1c(O)c(-c2ccc(O)c(O)c2)oc2cc(O)cc(O)c12 [Quercetin]
